Source: paper PMC11191095, “QSAR Reveals Decreased Lipophilicity of Polar Residues Determines the Selectivity of Antimicrobial Peptide Activity” (ACS Omega, 2024)

Legend:
[1] = system: human erythrocytes; assay: In vitro hemolytic activity; type: cell-based; settings: human erythrocytes in PBS, 1 h, 37 °C, OD550; from dose response curves
Procedure: Potential erythrocyte hemolysis was tested by incubating serial dilutions of the AMPs in PBS with freshly collected erythrocytes at a ratio of 1:1 in 96-well polypropylene V-shape plates for 1 h at 37 °C. Control wells were treated with 0.1% Triton-X-100 to ensure complete lysis or PBS-only to represent no lysis. The erythrocytes were collected by centrifugation and the OD550 of the supernatant was measured using a plate reader. The percentage hemolysis was calculated as [drawing 1] 1 where Apeptide is the absorbance value of erythrocytes exposed to a known peptide concentration, Agrowth control is the absorbance of erythrocytes exposed to 0.1% Triton-X-100 and Ablank is the absorbance of erythrocytes exposed to the PBS. The concentrations at which a peptide caused 10% (HC10) and 50% (HC50) hemolysis was determined from the dose response curves.

[2] = system: HaCat cell line; assay: In vitro HaCat cytotoxicity (MTT); type: cell-based, human; settings: 21 h exposure, OD570, relative to untreated control
Procedure: The HaCat cell line (Cellonex, South Africa) was cultured in Dulbecco’s Modified Eagle Medium (DMEM) supplemented with 10% heat-inactivated fetal calf serum (FCS) and 1% antibiotic-antimycotic (Abs) and maintained at 5–10% CO2, 37 °C, 95% humidity. For cytotoxicity screening, 5.56 × 10^4 cells/mL were plated in a 96-well plate. After 24 h incubation, the cells are initially exposed to each peptide at a concentration of 256 μg/mL or 0.1% Triton-X-100 as the control for 21 h. If cytotoxicity was observed, at a level of significance of p < 0.0001 compared with the untreated control after 21 h, a dose-response assay was undertaken. Cell viability was determined by adding 10% 3-(4,5-dimethyl-2-thiazolyl)-2,5-diphenyl-2H-tetrazolium bromide (MTT) (1 mg/mL), to each well and after a further 3 h incubation the media was discarded, and the formazan crystals dissolved by adding 25% DMSO in ethanol. The absorbance was measured at OD570 by using the FLUOstar Omega multidetection microplate reader (BMG Labtech). Percentage cell viability was calculated relative to the untreated control. The LC50 was defined as the concentration of AMP treatment that results in 50% lethality of HaCat cells and was determined from the dose-response curves.

CC[C@H](C)[C@H](NC(=O)[C@H](C)NC(=O)[C@H](CCCCN)NC(=O)[C@@H]1CCCN1C(=O)[C@@H](NC(=O)[C@H](CC(C)C)NC(=O)[C@H](CO)NC(=O)[C@H](Cc1ccccc1)NC(=O)[C@H](CC(C)C)NC(=O)[C@@H](N)Cc1ccccc1)[C@@H](C)CC)C(=O)NCC(=O)NCC(=O)N[C@@H](CC(C)C)C(=O)N[C@H](C(=O)N[C@@H](CO)C(=O)N[C@@H](C)C(=O)N[C@@H](Cc1ccccc1)C(=O)N[C@@H](CCCCN)C(=O)O)[C@@H](C)CC [AamAP-S1]
HC10 (concentration causing 10% hemolysis) [1]: 128 µg/mL
HC50 (concentration causing 50% hemolysis) [1]: 195 µg/mL
% HaCat cell death at initial screening (256μg/mL) ± SD [2]: 85 ±17.9%
